Measured values taken from PubChem BioAssay (NCI).
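1) Cells in 96-well plates. 2) Compound, 48 h, 5 concentrations. 3) Linear interpolation between surrounding doses. 4) Unreached endpoint = highest concentration. TGI is the concentration that stops growth completely.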

Legend:
Assay in all cases: NCI tumour cell line growth inhibition, 48 h
SK-OV-3 ovarian = tested on: SK-OV-3 ovarian
XF 498 CNS = tested on: XF 498 CNS
NCI-H23 lung = tested on: NCI-H23 lung
SF-268 CNS = tested on: SF-268 CNS
MOLT-4 leukemia = tested on: MOLT-4 leukemia
CCRF-CEM leukemia = tested on: CCRF-CEM leukemia
SN12C renal = tested on: SN12C renal
EKVX NSCLC = tested on: EKVX NSCLC
HOP-18 NSCLC = tested on: HOP-18 NSCLC
IGROV1 ovarian = tested on: IGROV1 ovarian
LOX IMVI melanoma = tested on: LOX IMVI melanoma
OVCAR-3 ovarian = tested on: OVCAR-3 ovarian
DMS 273 small cell lung = tested on: DMS 273 small cell lung
SNB-19 CNS = tested on: SNB-19 CNS
NCI-H460 lung = tested on: NCI-H460 lung
MALME-3M melanoma = tested on: MALME-3M melanoma
RXF 393 renal = tested on: RXF 393 renal
RXF-631 renal = tested on: RXF-631 renal
U251 CNS = tested on: U251 CNS
SK-MEL-2 melanoma = tested on: SK-MEL-2 melanoma
NCI-H226 lung = tested on: NCI-H226 lung
SK-MEL-28 melanoma = tested on: SK-MEL-28 melanoma
SNB-75 CNS = tested on: SNB-75 CNS
HCC-2998 colon = tested on: HCC-2998 colon
SF-295 CNS = tested on: SF-295 CNS
HOP-62 NSCLC = tested on: HOP-62 NSCLC
HT29 colon = tested on: HT29 colon
OVCAR-4 ovarian = tested on: OVCAR-4 ovarian
A549 NSCLC = tested on: A549 NSCLC
TK-10 renal = tested on: TK-10 renal
786-0 renal = tested on: 786-0 renal
A498 renal = tested on: A498 renal
SW-620 colon = tested on: SW-620 colon
HCT-116 colon = tested on: HCT-116 colon
KM12 colon = tested on: KM12 colon
UO-31 renal = tested on: UO-31 renal
SK-MEL-5 melanoma = tested on: SK-MEL-5 melanoma
OVCAR-5 ovarian = tested on: OVCAR-5 ovarian
RPMI-8226 leukemia = tested on: RPMI-8226 leukemia
UACC-257 melanoma = tested on: UACC-257 melanoma
DMS 114 small cell lung = tested on: DMS 114 small cell lung
M14 melanoma = tested on: M14 melanoma
KM20L2 colon = tested on: KM20L2 colon
COLO 205 colon = tested on: COLO 205 colon
HCT-15 colon = tested on: HCT-15 colon
SF-539 CNS = tested on: SF-539 CNS
OVCAR-8 ovarian = tested on: OVCAR-8 ovarian
ACHN renal = tested on: ACHN renal
HOP-92 NSCLC = tested on: HOP-92 NSCLC
HL-60(TB) leukemia = tested on: HL-60(TB) leukemia
SR leukemia = tested on: SR leukemia
K-562 leukemia = tested on: K-562 leukemia
M19-MEL melanoma = tested on: M19-MEL melanoma
UACC-62 melanoma = tested on: UACC-62 melanoma
DLD-1 colon = tested on: DLD-1 colon

Measured: TGI

COc1ccc(C(O)/C(=C/n2ccnc2)c2ccccc2)cc1OC (stereo not given)
> 100 µM: all assays above
